According to patent US12552775B2, “Compounds and uses thereof” (Foghorn Therapeutics Inc., priority 2020, dated 2026):

Columns and labels:
[1] = biological target: T1, HiBit-BRG1 fusion protein (Homo sapiens, UniProt P51532); test: HiBiT-BRG1 cell-based degradation assay (Nano-Glo HiBiT Lytic Detection, 24 h); conditions: stable HeLa cell line expressing HiBit-BRG1 and LgBit, top dose 30 μM, read-out: BRG1 HiBit Degradation Maximum (%)
T1 construct: expressed in transfected cells
Method in brief: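 HeLa cells stably expressing HiBiT-BRG1 plus LgBiT were treated with 10-point 3-fold compound dilutions (top 30 μM final) for 24 h. Lytic Nano-Glo HiBiT luminescence was read. % degradation was normalised between DMSO (high control) and 2 μM of a reference BRM/BRG1 degrader (low control).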

[2] = biological target: T2, HiBit-BRM fusion protein (Homo sapiens, UniProt P51531); test: HiBiT-BRM cell-based degradation assay (Nano-Glo HiBiT Lytic Detection, 24 h); conditions: stable HeLa cell line expressing HiBiT-BRM, top dose 30 μM
T2 construct: expressed in transfected cells
Method in brief: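 Stable HiBiT-BRM HeLa cells treated 24 h with 10-point 3-fold dilutions, top final dose 30 μM, in duplicate. Luminescence read after lytic LgBiT reagent. Percent degradation was normalised to DMSO (high control) and 2 μM reference BRM/BRG1 degrader (low control).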

T2 sequence (P51531 whole entry, the tested form may be a part): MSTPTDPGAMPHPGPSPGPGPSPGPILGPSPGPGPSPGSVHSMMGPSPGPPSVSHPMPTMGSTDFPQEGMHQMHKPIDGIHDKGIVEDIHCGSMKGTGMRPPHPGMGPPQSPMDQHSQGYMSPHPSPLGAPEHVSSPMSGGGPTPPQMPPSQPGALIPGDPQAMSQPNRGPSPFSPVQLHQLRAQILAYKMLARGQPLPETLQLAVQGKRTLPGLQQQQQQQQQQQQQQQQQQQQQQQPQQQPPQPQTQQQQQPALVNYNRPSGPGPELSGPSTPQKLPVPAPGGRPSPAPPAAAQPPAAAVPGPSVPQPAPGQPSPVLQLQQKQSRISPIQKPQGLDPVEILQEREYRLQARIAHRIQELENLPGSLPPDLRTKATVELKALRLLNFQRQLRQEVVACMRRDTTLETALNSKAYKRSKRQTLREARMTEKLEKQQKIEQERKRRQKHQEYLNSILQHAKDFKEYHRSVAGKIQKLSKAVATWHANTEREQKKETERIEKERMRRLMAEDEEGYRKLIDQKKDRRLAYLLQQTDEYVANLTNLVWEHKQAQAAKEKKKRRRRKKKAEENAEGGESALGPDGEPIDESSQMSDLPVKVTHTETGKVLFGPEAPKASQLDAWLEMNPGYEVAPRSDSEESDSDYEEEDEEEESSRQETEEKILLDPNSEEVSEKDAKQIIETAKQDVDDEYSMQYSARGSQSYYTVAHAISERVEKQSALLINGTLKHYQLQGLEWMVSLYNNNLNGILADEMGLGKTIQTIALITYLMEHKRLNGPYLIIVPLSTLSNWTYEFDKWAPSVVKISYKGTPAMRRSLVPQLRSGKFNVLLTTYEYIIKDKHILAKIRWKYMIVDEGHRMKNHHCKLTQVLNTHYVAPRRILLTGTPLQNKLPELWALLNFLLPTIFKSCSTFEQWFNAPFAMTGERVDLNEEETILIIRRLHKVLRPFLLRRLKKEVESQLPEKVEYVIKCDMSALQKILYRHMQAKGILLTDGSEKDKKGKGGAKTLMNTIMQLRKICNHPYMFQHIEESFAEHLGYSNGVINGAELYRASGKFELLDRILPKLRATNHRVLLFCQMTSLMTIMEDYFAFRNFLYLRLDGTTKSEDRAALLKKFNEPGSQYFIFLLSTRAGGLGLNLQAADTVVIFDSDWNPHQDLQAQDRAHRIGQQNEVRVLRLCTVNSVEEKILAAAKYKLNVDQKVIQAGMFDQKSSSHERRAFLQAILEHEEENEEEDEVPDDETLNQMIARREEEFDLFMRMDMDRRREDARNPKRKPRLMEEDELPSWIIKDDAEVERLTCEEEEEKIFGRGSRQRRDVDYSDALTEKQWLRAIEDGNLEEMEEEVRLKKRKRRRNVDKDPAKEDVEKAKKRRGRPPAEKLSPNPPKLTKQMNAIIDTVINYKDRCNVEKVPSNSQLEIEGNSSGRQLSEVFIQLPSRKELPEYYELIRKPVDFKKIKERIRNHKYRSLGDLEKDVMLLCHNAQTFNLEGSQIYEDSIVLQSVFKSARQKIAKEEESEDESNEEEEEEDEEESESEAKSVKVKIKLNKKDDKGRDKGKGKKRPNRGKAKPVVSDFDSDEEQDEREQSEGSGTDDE
T1 sequence (P51532 whole entry, the tested form may be a part): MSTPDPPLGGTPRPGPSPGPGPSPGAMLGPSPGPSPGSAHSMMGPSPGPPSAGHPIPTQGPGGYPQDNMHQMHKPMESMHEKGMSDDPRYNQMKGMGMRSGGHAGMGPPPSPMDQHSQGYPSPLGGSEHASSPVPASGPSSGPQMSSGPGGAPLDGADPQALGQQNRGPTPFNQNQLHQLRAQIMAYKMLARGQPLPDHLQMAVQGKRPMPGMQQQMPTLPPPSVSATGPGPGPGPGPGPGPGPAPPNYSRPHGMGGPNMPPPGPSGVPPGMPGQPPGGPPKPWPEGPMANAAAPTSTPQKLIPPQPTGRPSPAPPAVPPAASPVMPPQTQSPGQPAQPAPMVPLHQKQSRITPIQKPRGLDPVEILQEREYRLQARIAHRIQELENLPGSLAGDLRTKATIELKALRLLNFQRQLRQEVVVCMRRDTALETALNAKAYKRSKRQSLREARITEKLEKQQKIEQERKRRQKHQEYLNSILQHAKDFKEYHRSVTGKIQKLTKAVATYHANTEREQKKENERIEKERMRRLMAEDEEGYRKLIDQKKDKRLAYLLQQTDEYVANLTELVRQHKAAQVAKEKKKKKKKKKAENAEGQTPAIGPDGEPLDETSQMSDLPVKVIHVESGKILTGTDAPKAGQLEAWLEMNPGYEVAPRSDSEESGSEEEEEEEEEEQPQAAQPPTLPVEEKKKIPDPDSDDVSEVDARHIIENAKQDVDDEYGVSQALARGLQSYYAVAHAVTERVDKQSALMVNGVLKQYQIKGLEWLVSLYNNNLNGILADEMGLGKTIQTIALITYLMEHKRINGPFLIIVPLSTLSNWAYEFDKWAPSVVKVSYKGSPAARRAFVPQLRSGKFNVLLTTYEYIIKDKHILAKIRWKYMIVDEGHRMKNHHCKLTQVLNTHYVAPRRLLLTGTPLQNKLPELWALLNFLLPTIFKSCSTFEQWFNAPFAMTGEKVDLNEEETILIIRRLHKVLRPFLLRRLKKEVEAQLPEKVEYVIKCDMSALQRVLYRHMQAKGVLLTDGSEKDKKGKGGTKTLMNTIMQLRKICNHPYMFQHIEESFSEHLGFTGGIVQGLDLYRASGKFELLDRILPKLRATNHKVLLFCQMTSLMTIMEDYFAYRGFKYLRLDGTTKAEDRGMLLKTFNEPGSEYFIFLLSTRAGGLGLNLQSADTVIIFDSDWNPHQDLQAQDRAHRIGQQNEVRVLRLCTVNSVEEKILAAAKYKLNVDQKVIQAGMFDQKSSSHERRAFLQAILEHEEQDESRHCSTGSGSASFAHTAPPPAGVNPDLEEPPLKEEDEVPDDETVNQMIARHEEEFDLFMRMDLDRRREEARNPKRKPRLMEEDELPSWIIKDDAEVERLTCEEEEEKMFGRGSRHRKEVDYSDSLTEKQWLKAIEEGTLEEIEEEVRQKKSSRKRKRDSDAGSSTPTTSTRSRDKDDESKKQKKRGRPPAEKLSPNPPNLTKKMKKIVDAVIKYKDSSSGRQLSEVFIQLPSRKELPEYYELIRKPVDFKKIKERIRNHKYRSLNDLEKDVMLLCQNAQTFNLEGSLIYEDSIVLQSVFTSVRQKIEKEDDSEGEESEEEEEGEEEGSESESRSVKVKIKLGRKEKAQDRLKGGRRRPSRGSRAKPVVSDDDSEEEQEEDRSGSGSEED

Compound	Dmax [1]	BRM HiBit Degradation Maximum (%) [2]
Nc1nnc(-c2ccccc2O)cc1OCC12CC(CNC(=O)CCCCCCCCNc3ccc4c(c3)C(=O)N(C3CCC(=O)NC3=O)C4=O)(C1)C2 (centres unmarked) [Compound 9, N-[[3-([[3-amino-6-(2-hydroxyphenyl)pyridazin-4-yl]oxy]methyl)bicyclo[1.1.1]pentan-1-yl]methyl]-9-[[2-(2,6-dioxopiperidin-3-yl)-1,3-dioxoisoindol-5-yl]amino]nonanamide]	< 50%	C (“C” indicates maximum degradation < 50%)
Nc1nnc(-c2ccccc2O)cc1OCC12CC(CNC(=O)CCCCCCCCCCNc3cccc4c3C(=O)N(C3CCC(=O)NC3=O)C4=O)(C1)C2 (centres unmarked) [Compound 8, N-[[3-([[3-amino-6-(2-hydroxyphenyl)pyridazin-4-yl]oxy]methyl)bicyclo[1.1.1]pentan-1-yl]methyl]-11-[[2-(2,6-dioxopiperidin-3-yl)-1,3-dioxoisoindol-4-yl]amino]undecanamide]	< 50%	C (“C” indicates maximum degradation < 50%)
Nc1nnc(-c2ccccc2O)cc1OCC12CC(C(=O)NCCOC3CN(c4ccc5c(c4)C(=O)N(C4CCC(=O)NC4=O)C5=O)C3)(C1)C2 (centres unmarked) [Compound 81, 3-(((3-amino-6-(2-hydroxyphenyl)pyridazin-4-yl)oxy)methyl)-N-(2-((1-(2-(2,6-dioxopiperidin-3-yl)-1,3-dioxoisoindolin-5-yl)azetidin-3-yl)oxy)ethyl)bicyclo[1.1.1]pentane-1-carboxamide]	> 50%	B (“B” indicates maximum degradation ≥ 50%)
Nc1nnc(-c2ccccc2O)cc1OCCC12CC(NC(=O)CCCCCCCCCCNc3cccc4c3C(=O)N(C3CCC(=O)NC3=O)C4=O)(C1)C2 (centres unmarked) [Compound 24, N-[3-(2-[[3-amino-6-(2-hydroxyphenyl)pyridazin-4-yl]oxy]ethyl)bicyclo[1.1.1]pentan-1-yl]-11-[[2-(2,6-dioxopiperidin-3-yl)-1,3-dioxoisoindol-4-yl]amino]undecanamide]	< 50%	C (“C” indicates maximum degradation < 50%)
Cc1ncsc1-c1ccc(CNC(=O)[C@@H]2C[C@@H](O)CN2C(=O)[C@@H](NC(=O)CCCC(=O)NC23CC(CCOc4cc(-c5ccccc5O)nnc4N)(C2)C3)C(C)(C)C)cc1 [Compound 46, N1-(3-(2-((3-amino-6-(2-hydroxyphenyl)pyridazin-4-yl)oxy)ethyl)bicyclo[1.1.1]pentan-1-yl)-N5-((S)-1-((2S,4R)-4-hydroxy-2-((4-(4-methylthiazol-5-yl)benzyl)carbamoyl)pyrrolidin-1-yl)-3,3-dimethyl-1-oxobutan-2-yl)glutaramide]	< 50%	B (“B” indicates maximum degradation ≥ 50%)
Cc1nc2cccc(NCCOCCOCCNC(=O)C34CC(COc5cc(-c6ccccc6O)nnc5N)(C3)C4)c2c(=O)n1C1CCC(=O)NC1=O (centres unmarked) [Compound 61, 3-(((3-amino-6-(2-hydroxyphenyl)pyridazin-4-yl)oxy)methyl)-N-(2-(2-(2-((3-(2,6-dioxopiperidin-3-yl)-2-methyl-4-oxo-3,4-dihydroquinazolin-5-yl)amino)ethoxy)ethoxy)ethyl)bicyclo[1.1.1]pentane-1-carboxamide]	< 50%	C (“C” indicates maximum degradation < 50%)
Nc1nnc(-c2ccccc2O)cc1OCC12CC(C(=O)NCCOCCOCCNC(=O)COc3cccc4c3C(=O)N(C3CCC(=O)NC3=O)C4=O)(C1)C2 (centres unmarked) [Compound 90, 3-(((3-amino-6-(2-hydroxyphenyl)pyridazin-4-yl)oxy)methyl)-N-(2-(2-(2-(2-((2-(2,6-dioxopiperidin-3-yl)-1,3-dioxoisoindolin-4-yl)oxy)acetamido)ethoxy)ethoxy)ethyl)bicyclo[1.1.1]pentane-1-carboxamide]	< 50%	C (“C” indicates maximum degradation < 50%)
Nc1nnc(-c2ccccc2O)cc1OCC12CC(C(=O)N3CC(COc4ccc5c(c4)C(=O)N(C4CCC(=O)NC4=O)C5=O)C3)(C1)C2 (centres unmarked) [Compound 86, 5-((1-(3-(((3-amino-6-(2-hydroxyphenyl)pyridazin-4-yl)oxy)methyl)bicyclo[1.1.1]pentane-1-carbonyl)azetidin-3-yl)methoxy)-2-(2,6-dioxopiperidin-3-yl)isoindoline-1,3-dione]	> 50%	B (“B” indicates maximum degradation ≥ 50%)
Nc1nnc(-c2ccccc2O)cc1OCC12CC(C(=O)NCCOCCOCCOCCNC(=O)COc3ccc4c(c3)C(=O)N(C3CCC(=O)NC3=O)C4=O)(C1)C2 (centres unmarked) [Compound 93, 3-(((3-amino-6-(2-hydroxyphenyl)pyridazin-4-yl)oxy)methyl)-N-(1-((2-(2,6-dioxopiperidin-3-yl)-1,3-dioxoisoindolin-5-yl)oxy)-2-oxo-6,9,12-trioxa-3-azatetradecan-14-yl)bicyclo[1.1.1]pentane-1-carboxamide]	< 50%	C (“C” indicates maximum degradation < 50%)
Cc1ncsc1-c1ccc(CNC(=O)[C@@H]2C[C@@H](O)CN2C(=O)[C@@H](NC(=O)CCCCCCCCCC(=O)NCC23CC(COc4cc(-c5ccccc5O)nnc4N)(C2)C3)C(C)(C)C)cc1 [Compound 39, N1-((3-(((3-amino-6-(2-hydroxyphenyl)pyridazin-4-yl)oxy)methyl)bicyclo[1.1.1]pentan-1-yl)methyl)-N11-((S)-1-((2S,4R)-4-hydroxy-2-((4-(4-methylthiazol-5-yl)benzyl)carbamoyl)pyrrolidin-1-yl)-3,3-dimethyl-1-oxobutan-2-yl)undecanediamide]	< 50%	B (“B” indicates maximum degradation ≥ 50%)
Cc1ncsc1-c1ccc(CNC(=O)[C@@H]2C[C@@H](O)CN2C(=O)[C@@H](NC(=O)CCC(=O)NC23CC(CCOc4cc(-c5ccccc5O)nnc4N)(C2)C3)C(C)(C)C)cc1 [Compound 42, N1-(3-(2-((3-amino-6-(2-hydroxyphenyl)pyridazin-4-yl)oxy)ethyl)bicyclo[1.1.1]pentan-1-yl)-N4-((S)-1-((2S,4R)-4-hydroxy-2-((4-(4-methylthiazol-5-yl)benzyl)carbamoyl)pyrrolidin-1-yl)-3,3-dimethyl-1-oxobutan-2-yl)succinamide]	< 50%	C (“C” indicates maximum degradation < 50%)
Nc1nnc(-c2ccccc2O)cc1OCC12CC(C(=O)N3CC(Oc4ccc5c(c4)C(=O)N(C4CCC(=O)NC4=O)C5=O)C3)(C1)C2 (centres unmarked) [Compound 96, 5-((1-(3-(((3-amino-6-(2-hydroxyphenyl)pyridazin-4-yl)oxy)methyl)bicyclo[1.1.1]pentane-1-carbonyl)azetidin-3-yl)oxy)-2-(2,6-dioxopiperidin-3-yl)isoindoline-1,3-dione]	< 50%	C (“C” indicates maximum degradation < 50%)
Cc1ncsc1-c1ccc(CNC(=O)[C@@H]2C[C@@H](O)CN2C(=O)[C@@H](NC(=O)COCCOCCOCCOCC(=O)NC23CC(CCOc4cc(-c5ccccc5O)nnc4N)(C2)C3)C(C)(C)C)cc1 [Compound 45, N1-(3-(2-((3-amino-6-(2-hydroxyphenyl)pyridazin-4-yl)oxy)ethyl)bicyclo[1.1.1]pentan-1-yl)-N14-((S)-1-((2S,4R)-4-hydroxy-2-((4-(4-methylthiazol-5-yl)benzyl)carbamoyl)pyrrolidin-1-yl)-3,3-dimethyl-1-oxobutan-2-yl)-3,6,9,12-tetraoxatetradecanediamide]	< 50%	B (“B” indicates maximum degradation ≥ 50%)
Nc1nnc(-c2ccccc2O)cc1OCC12CC(C(=O)NCCCC#Cc3ccc4c(c3)C(=O)N(C3CCC(=O)NC3=O)C4=O)(C1)C2 (centres unmarked) [Compound 89, 3-(((3-amino-6-(2-hydroxyphenyl)pyridazin-4-yl)oxy)methyl)-N-(5-(2-(2,6-dioxopiperidin-3-yl)-1,3-dioxoisoindolin-5-yl)pent-4-yn-1-yl)bicyclo[1.1.1]pentane-1-carboxamide]	< 50%	C (“C” indicates maximum degradation < 50%)
Cc1ncsc1-c1ccc(CNC(=O)[C@@H]2C[C@@H](O)CN2C(=O)[C@@H](NC(=O)CCCCCCCCCCC(=O)NCC23CC(COc4cc(-c5ccccc5O)nnc4N)(C2)C3)C(C)(C)C)cc1 [Compound 38, N1-((3-(((3-amino-6-(2-hydroxyphenyl)pyridazin-4-yl)oxy)methyl)bicyclo[1.1.1]pentan-1-yl)methyl)-N12-((S)-1-((2S,4R)-4-hydroxy-2-((4-(4-methylthiazol-5-yl)benzyl)carbamoyl)pyrrolidin-1-yl)-3,3-dimethyl-1-oxobutan-2-yl)dodecanediamide]	< 50%	B (“B” indicates maximum degradation ≥ 50%)
Cc1ncsc1-c1ccc(CNC(=O)[C@@H]2C[C@@H](O)CN2C(=O)[C@@H](NC(=O)CCCCCCCCCC(=O)NC23CC(CCOc4cc(-c5ccccc5O)nnc4N)(C2)C3)C(C)(C)C)cc1 [Compound 48, N1-(3-(2-((3-amino-6-(2-hydroxyphenyl)pyridazin-4-yl)oxy)ethyl)bicyclo[1.1.1]pentan-1-yl)-N11-((S)-1-((2S,4R)-4-hydroxy-2-((4-(4-methylthiazol-5-yl)benzyl)carbamoyl)pyrrolidin-1-yl)-3,3-dimethyl-1-oxobutan-2-yl)undecanediamide; formic acid]	> 50%	B (“B” indicates maximum degradation ≥ 50%)
